# Assay results as given in patent US4952689A, “3-(substituted propylidene)-2-azetidinone derivates for blood platelet aggregation” (Taisho Pharmaceutical Co., Ltd., priority 1988, dated 1990).
# System: acute thrombocytopenia
# Experiment: Inhibitory effect on acute thrombocytopenia in mice (ADP-induced)
# Assay type: in vivo, male ICR mice
# Conditions: 300 mg/kg by gavage 2 hours prior to ADP (1 mg/kg, tail vein); platelet count at 30 seconds after ADP
# Protocol: Experiment [Inhibitory effect on acute thrombocytopenia in mice]
# Ten male ICR mice weighing 20-30 g were used for each group. Under pentobarbital anaesthesia, adenosine diphosphate (ADP) dissolved in physiological saline in a dose of 1 mg/kg was injected into the tail vein and 20 μl of blood was collected from the femoral artery at 30 seconds after injection of ADP. Immediately after blood sampling, platelet counts were measured with an automatic blood cell counter (Sysmex CC-180A). Platelet count of normal group without injection of ADP was measured as well.
# Test drugs [Compounds 2 and 3 (the compounds of the present invention) and Compound 1 (the comparative drug) in Table 1] were suspended in 5% gum arabic solution and administered by gavage in a dose of 300 mg/kg 2 hours prior to injection of ADP. As control group, 5% gum arabic solution without test drugs was administered.
# Inhibition ratio of acute thrombocytopenia was calculated by the following formula. [formula]
# Note: A: Platelet count of the group treated with both test drug and ADP
# B: Platelet count of control group with both 5% gum arabic solution and ADP
# C: Platelet count of normal group without injection of ADP
row,SMILES,Inhibition Ratio [%]
1,"COc1ccc(N2C(=O)/C(=C/C(C)=NOCCCN3CCOCC3)C2c2ccccc2)cc1 (stereo not drawn) [Compound 2, (E)-1-(4-Methoxyphenyl)-3-{2-[3-(4-morpholinyl)propoxyimino]propylidene}-4-phenyl-2azetidinone]",54.66
2,"COc1ccc(N2C(=O)/C(=C/C(C)=NOCCCN3CCN(c4ccccn4)CC3)C2c2ccccc2)cc1 (stereo not drawn) [Compound 3, (E)-1-(4-Methoxyphenyl)-3-[2-[3-{1-[4-(2-pyridyl)piperadinyl]}propoxyimino]-propylidene]-4-phenyl-2-azetidinone]",57.61
3,"COc1ccc(N2C(=O)/C(=C/C(C)=NOCC(=O)O)C2c2ccccc2)cc1 (stereo not drawn) [Compound 1, (E)-1-(4-Methoxyphenyl)-3-(2-carboxymethoxyiminopropylidene)-4-phenyl-2-azetidinone, reference compound]",12.00
